Measured values taken from patent US6894054B2, “Heterocyclic inhibitors of glycine transporter 2” (Telik, Inc., priority 2001, dated 2005).

Target: T1, rat glycine transporter subtype 2 (GlyT2) (Rattus norvegicus, UniProt P58295)
T1 construct: expressed in transfected cells; host or cells: CHO cells
T1 sequence (P58295 1-799): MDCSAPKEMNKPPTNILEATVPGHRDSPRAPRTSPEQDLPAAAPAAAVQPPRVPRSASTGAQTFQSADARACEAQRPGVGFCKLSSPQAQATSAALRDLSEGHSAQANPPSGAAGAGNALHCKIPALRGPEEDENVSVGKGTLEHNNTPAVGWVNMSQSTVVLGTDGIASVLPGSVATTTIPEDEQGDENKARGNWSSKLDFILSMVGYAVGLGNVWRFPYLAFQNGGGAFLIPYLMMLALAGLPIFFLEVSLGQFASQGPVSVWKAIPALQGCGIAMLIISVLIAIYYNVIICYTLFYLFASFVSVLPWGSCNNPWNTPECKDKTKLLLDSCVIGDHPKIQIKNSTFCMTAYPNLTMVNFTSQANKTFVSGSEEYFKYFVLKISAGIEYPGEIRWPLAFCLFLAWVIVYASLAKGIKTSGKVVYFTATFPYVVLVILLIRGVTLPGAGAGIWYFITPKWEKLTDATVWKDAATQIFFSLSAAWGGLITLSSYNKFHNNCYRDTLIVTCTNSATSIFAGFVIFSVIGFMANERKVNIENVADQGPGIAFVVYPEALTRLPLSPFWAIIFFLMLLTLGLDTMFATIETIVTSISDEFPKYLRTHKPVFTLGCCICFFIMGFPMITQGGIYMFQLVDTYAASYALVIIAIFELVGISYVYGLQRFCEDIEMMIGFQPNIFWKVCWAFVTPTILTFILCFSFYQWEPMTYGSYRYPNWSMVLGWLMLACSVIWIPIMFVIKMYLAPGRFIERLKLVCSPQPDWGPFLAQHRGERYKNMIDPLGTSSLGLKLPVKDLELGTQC
Test: Inhibition of glycine transporter 2: 3H-glycine uptake in CHO cells expressing rat GlyT2
Assay type: cell-based
Details: GlyT2 inhibitory concentration, 15 min preincubation, 10 nM 3H-glycine, 7 min uptake, read-out: GlyT2 Inhib.
Procedure: CHO cells expressing rat glycine transporter subtype 2 (GlyT2) were grown in high glucose Dulbecco's modified Eagle's medium supplemented with 10% bovine fetal serum at 37° C. in a 5% CO2 atmosphere. Subconfluent cells growing in 24- or 96-well plates were washed with PBS, and were preincubated at 37° C. for 15 min with uptake buffer (100 mM NaCl, 2 mM KCl, 1 mM CaCl2, 1 mM MgCl2, 10 mM HEPES, pH 7.5) containing sample compounds. Uptake was initiated by adding prewarmed ^3H-glycine yielding a 10 nM final glycine concentration, and was terminated after 7 min by aspiration of the buffer. Cells were washed 3 times with ice-cold PBS, and radioactivity was determined by scintillation counting using TopCount. GlyT2 inhibitory concentrations for several compounds of Formula I are given below.

Row | IC50 [nM] | Compound
1 | 6600 | CCn1nc(C)cc1-c1nnc(SCc2ccccc2)n1-c1ccccc1 [Compound 7, 3-benzylthio-5-(2-ethyl-5-methyl-3-diazolyl)-4-phenyl-1,2,4-triazole]
2 | 900 | Clc1cccc(Cl)c1CSc1nnc(-c2cnccn2)s1 [Compound 12, 5-[(2,6-dichlorophenyl)methylthio]-2-(pyrazin-2-yl)-1,3,4-thiadiazole]
3 | 1100 | c1ccc(CSc2nnc(CCCCc3nnc(SCc4ccccc4)o3)o2)cc1 [Compound 21, 2,2′-(1,4-butanediyl)bis[5-(benzylthio)-1,3,4-oxadiazole]]
